Laboratory results: publication PMC5607274, “An iterative compound screening contest method for identifying target protein inhibitors using the tyrosine-protein kinase Yes” (Scientific Reports, 2017)

Target: T1, human recombinant Yes [a.a. 2–543 (end)] (Homo sapiens, UniProt P07947)
T1 construct: human recombinant Yes [a.a; 2–543 (end)]; purchased BPS Bioscience 40488
Experiment: ADP-Glo kinase assay, inhibition rates of Yes phosphorylation activity (first and second screening)
Format: biochemical
Conditions: first screening; mean of n = 4 wells; 10 μmol L−1 compound
Method in brief: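 Hits from a first pass were rescreened after re-dissolution from fresh powder. The first pass reported the mean inhibition rate of quadruplicate wells per compound. Activity was that of recombinant human Yes [a.a. 2–543] kinase, read out with the ADP-Glo ADP-detection method.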

T1 sequence (P07947 2-543): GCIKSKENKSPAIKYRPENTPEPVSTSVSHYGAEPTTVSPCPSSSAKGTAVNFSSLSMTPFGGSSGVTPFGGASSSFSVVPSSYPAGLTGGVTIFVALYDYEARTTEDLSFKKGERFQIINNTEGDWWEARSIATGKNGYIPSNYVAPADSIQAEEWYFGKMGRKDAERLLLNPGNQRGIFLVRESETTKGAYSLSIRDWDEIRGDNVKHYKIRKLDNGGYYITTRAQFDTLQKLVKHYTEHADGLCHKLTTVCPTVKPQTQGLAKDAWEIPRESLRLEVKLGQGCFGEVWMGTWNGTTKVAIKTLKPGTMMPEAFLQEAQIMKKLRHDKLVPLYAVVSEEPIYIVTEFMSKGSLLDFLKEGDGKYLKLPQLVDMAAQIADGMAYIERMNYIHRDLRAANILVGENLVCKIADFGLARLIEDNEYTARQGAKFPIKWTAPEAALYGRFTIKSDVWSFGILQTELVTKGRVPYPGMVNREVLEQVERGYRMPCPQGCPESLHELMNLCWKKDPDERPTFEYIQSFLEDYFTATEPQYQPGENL

Structure (SMILES) | First screening IR (inhibition rate)
NCC1CCCS1(=O)=O (centres unmarked) [Compound Z1203586543] | 6%
Cc1c[nH]c(=O)n1-c1cccc(NC(=O)C2CC(=O)N(C)C2c2cccnc2)c1 (centres unmarked) [Compound Z1204166998] | -13%
CC1=C(C(=O)N(C)C)C(c2ccc(-c3c(F)cccc3F)o2)NC(=S)N1 (centres unmarked) [Compound Z1211655765] | 1%
COC1CCC(N(C)c2ncc(C(=O)N3CCOCC3)cc2Cl)CC1 (centres unmarked) [Compound Z1212734184] | -2%
C[S+]([O-])CCNC(=O)c1ccc(-c2cc(Cl)cc(Cl)c2)s1 (centres unmarked) [Compound Z1220303895] | -13%
COC(=O)Cn1ncc2c(NCCCc3cccc(F)c3)ncnc21 [Compound Z1220626900] | -8%
COc1ccccc1NC(=O)C1=C(C)Nc2nc(SCc3ccccc3)nn2C1c1ccncc1 (centres unmarked) [Compound Z1227522997] | -5%
CC1OC(C)(C)N(C(=O)OC(C)(C)C)C1CNC(=O)c1c(F)cccc1Cl (centres unmarked) [Compound Z1229892973] | -2%
CC(C)(C)OC(=O)N1CC(NC(=O)c2cc3c(F)cc(Br)cc3[nH]2)C1 [Compound Z1231909655] | -12%
CCN(CC)Cc1ccc(C(=O)N2CCC3(C2)NC(=O)NC3=O)cc1 (centres unmarked) [Compound Z1233805260] | 5%
CN1CCN(S(=O)(=O)CCS(C)(=O)=O)CC1 [Compound Z1238645651] | -2%
Cc1ccc(-n2cnc3c2CCNC3)cc1 [Compound Z1250487636] | -7%
CC1(C)CN=C(N2CCN(C(=O)c3ccc(C(N)=O)cc3)CC2)S1 [Compound Z1250701189] | 3%
CCC1CN(C(=O)OCc2ccccc2)C(CC)CN1C(=O)CCc1cnn(C)c1 (centres unmarked) [Compound Z1251624666] | -2%
Cc1cc(C(=O)Nc2nc3ccccc3n2C2CCCC2)nn1C [Compound Z1251687771] | 9%
COC(=O)c1ccc(F)c(S(=O)(=O)N(C)C2C3CCOC3C2(C)C)c1 (centres unmarked) [Compound Z1252759503] | 3%
CCN(CCNC(=O)CCN1CCN(c2ccccn2)CC1)c1ccccc1C [Compound Z1255568722] | 27%
CCc1cc(CNC(=O)NCc2ccc3cc(OC)ccc3c2)on1 [Compound Z1256754058] | -8%
CC(C)(C)Cc1cc(NC(=O)c2cnn(-c3ccccc3Cl)c2)n[nH]1 [Compound Z1262045135] | 70%
CC(C)CCc1nc(CN2C(=O)NC3(CCN(C(=O)OC(C)(C)C)CC3)C2=O)cs1 [Compound Z1262256786] | -2%
CCCCCNS(=O)(=O)CCS(C)(=O)=O [Compound Z1262455598] | -9%
CS1(=O)=NC=C(C(=O)O)C=C1 (centres unmarked) [Compound Z1262519784] | 52%

Structure (SMILES) | First screening IR (inhibition rate)
Cc1ccn2c(/C=C/C(=O)c3cccc(N4CCOC4=O)c3)cnc2c1 [Compound Z1263913876] | 44%
CN(C(=O)c1cccc(NC(=O)c2ccc(Br)o2)c1)c1ccc(C#N)cc1 [Compound Z1269414490] | -5%
CC1CC2CCCCC2N1c1ncnc2c1nnn2-c1ccccc1 (centres unmarked) [Compound Z1270084447] | 45%
Fc1ccc(-c2cc(-c3ccc(Cl)cc3)c3ccccc3n2)cc1 [Compound Z1270166647] | 43%
Cc1cc(S(=O)(=O)Nc2cc(-c3ccncc3)nn2C)ccc1Br [Compound Z1270579889] | 54%
CC1CCCC(C)N(S(=O)(=O)CCCS(C)(=O)=O)C1 (centres unmarked) [Compound Z1271251540] | 8%
CC1(C)CCCN(S(=O)(=O)CCCS(C)(=O)=O)CC1 [Compound Z1271277951] | -3%
COCCCCCn1ncc2ccc([N+](=O)[O-])cc21 [Compound Z1271542350] | 7%
CS(=O)(=O)C1CSCCN1S(=O)(=O)c1ccc(Br)cc1Cl (centres unmarked) [Compound Z1274438175] | -18%
CC(C)(C)n1cc(C(=O)NCc2ccc(-c3cccnc3)cc2)cn1 [Compound Z1276379731] | 5%
Cc1cccc(-c2nc(NC(=O)C3Cc4cc(F)ccc4O3)n[nH]2)n1 (centres unmarked) [Compound Z1279679753] | -4%
O=C(c1cc(Cc2ccccc2)ccc1O)N1CCN(Cc2ccon2)CC1 [Compound Z1285074692] | 21%
O=C(NS(=O)(=O)Cc1ccc(Cl)nc1)C1CCc2cn[nH]c2C1 (centres unmarked) [Compound Z1291253354] | -13%
COC(=O)c1cc(S(=O)(=O)Oc2ccc3c(C(C)C)cc(=O)oc3c2)cn1C [Compound Z1309300961] | 1%
Fc1ccc(-c2n[nH]c(CNc3cncc(Cl)n3)n2)cc1 [Compound Z1309541011] | -11%
CN1CCC(=O)Nc2cc(C(=O)N(C)C3CCCN(c4ccccc4)C3=O)ccc21 (centres unmarked) [Compound Z1315092412] | 16%
CC(C)(C)c1nccc(Nc2cn[nH]c2)n1 [Compound Z1317605702] | 42%
Cc1ccc(C(=O)Nc2ccc(OCc3ccccn3)c(F)c2)cn1 [Compound Z1318975474] | -2%
Cc1nc(N(C)C(C)c2ccc([S+](C)[O-])cc2)c2cnn(C)c2n1 (centres unmarked) [Compound Z1324037636] | 9%
CC(C)c1nc2n(n1)CC(NC(=O)Nc1cc(-c3ccccc3)ns1)CC2 (centres unmarked) [Compound Z1327803154] | 17%
CS(=O)(=O)N(C(=O)c1ccc(OC(F)(F)F)cc1)C1CCC(O)CC1 (centres unmarked) [Compound Z1328888966] | 2%
CC(Oc1ccc(N(C)C(N)=O)cc1)c1nnc(-c2cccc(Cl)c2)o1 (centres unmarked) [Compound Z1329202056] | -16%

Structure (SMILES) | First screening IR (inhibition rate)
CCCCNS(=O)(=O)C1=CCS(=O)(=O)C1 [Compound Z1342205464] | 9%
O=S1(=O)CC=C(S(=O)(=O)N2CCCC2)C1 [Compound Z1342206502] | 6%
Cc1cc(C)n(-c2cncc(NC(C)c3nnc4ccccn34)n2)n1 (centres unmarked) [Compound Z1343207103] | 5%
c1nc(N2CCCC2c2ccsc2)c2[nH]cnc2n1 (centres unmarked) [Compound Z1343239610] | 12%
Cc1ccccc1C1CCCN1c1ncnc2nc[nH]c12 (centres unmarked) [Compound Z1343261311] | 42%
Cc1c(C(=O)Nc2cnn(C)c2)c(=O)[nH]c2ccccc12 [Compound Z1343740230] | 23%
CC(C)S(=O)(=O)CCS(=O)(=O)Cc1ccc(Cl)cc1 [Compound Z1347350562] | -14%
CC(C)S(=O)(=O)CCS(=O)(=O)Cc1ccccc1 [Compound Z1347350572] | 2%
CC(C)S(=O)(=O)CCS(=O)(=O)C(C)c1ccc(F)cc1 (centres unmarked) [Compound Z1347351122] | 12%
CC(C)S(=O)(=O)CCS(=O)(=O)CC1CCCCC1 [Compound Z1347351162] | -3%
CC(C)S(=O)(=O)CCS(=O)(=O)c1cccc(Br)c1 [Compound Z1347351377] | -2%
O=C(OCc1ccc(-n2ccnc2)nc1)c1ccc([N+](=O)[O-])cc1 [Compound Z1352068858] | 7%
CC1(C)CN(c2nc(-c3ccncc3)nc3c2CCC3)CC[S+]1[O-] (centres unmarked) [Compound Z1396757600] | 8%
COC1(C)CC(N(C)C(=O)NC2CCCn3nc(C(C)C)nc32)C1(C)C (centres unmarked) [Compound Z1396774495] | -1%
CC1CN(c2nccnc2C#N)CCN1C(=O)c1cccc(OCc2ccc(F)cc2)c1 (centres unmarked) [Compound Z1401935735] | 35%
CCNC(=O)CN(CC)S(=O)(=O)c1cnn(-c2ccc(F)cc2)c1C [Compound Z1403244361] | 2%
CCC(C)CS(=O)(=O)N1CCS(=O)(=O)C(C)(C)C1 (centres unmarked) [Compound Z1403432995] | 11%
CN(C)c1nc2ccc(NC(=O)c3csc(-c4ccoc4)n3)cc2o1 [Compound Z1404550995] | 10%
Nc1ccnc(-c2cncs2)n1 [Compound Z1407063064] | -14%
COc1cccc(-c2cc(-c3ccccc3)c3cc(Br)ccc3n2)c1 [Compound Z1409331244] | -16%
CC(C)N(CC#N)S(=O)(=O)c1ccccc1S(C)(=O)=O [Compound Z1411146082] | -35%
Cc1cc(=O)[nH]c(C(C)Sc2ncn(-c3ccccc3)n2)n1 (centres unmarked) [Compound Z1415883225] | 34%

Same assay, conditions: second screening, dissolved from fresh powder; n = 4; 10 μmol L−1 compound

Structure (SMILES) | Second screening IR (inhibition rate)
CC(C)(C)Cc1cc(NC(=O)c2cnn(-c3ccccc3Cl)c2)n[nH]1 [Compound Z1262045135] | 21%
CC(C)(C)c1nccc(Nc2cn[nH]c2)n1 [Compound Z1317605702] | 7%
